According to patent publication US11339130B1 (Blade Therapeutics, Inc., priority 2016, dated 2022):
pIC50: −log10 of the molar value.

What was measured:
Assay type in all cases: biochemical
Human Calpain 2/NS1 = biological target: T1, Human Calpain 2/NS1 (Homo sapiens, UniProt P17655); assay: Calpain inhibition continuous fluorescence (FRET) assay, Human Calpain 2/NS1; details: Column B; read-out: Human Calpain 2/NS1 IC50
T1 sequence (P17655 1-700): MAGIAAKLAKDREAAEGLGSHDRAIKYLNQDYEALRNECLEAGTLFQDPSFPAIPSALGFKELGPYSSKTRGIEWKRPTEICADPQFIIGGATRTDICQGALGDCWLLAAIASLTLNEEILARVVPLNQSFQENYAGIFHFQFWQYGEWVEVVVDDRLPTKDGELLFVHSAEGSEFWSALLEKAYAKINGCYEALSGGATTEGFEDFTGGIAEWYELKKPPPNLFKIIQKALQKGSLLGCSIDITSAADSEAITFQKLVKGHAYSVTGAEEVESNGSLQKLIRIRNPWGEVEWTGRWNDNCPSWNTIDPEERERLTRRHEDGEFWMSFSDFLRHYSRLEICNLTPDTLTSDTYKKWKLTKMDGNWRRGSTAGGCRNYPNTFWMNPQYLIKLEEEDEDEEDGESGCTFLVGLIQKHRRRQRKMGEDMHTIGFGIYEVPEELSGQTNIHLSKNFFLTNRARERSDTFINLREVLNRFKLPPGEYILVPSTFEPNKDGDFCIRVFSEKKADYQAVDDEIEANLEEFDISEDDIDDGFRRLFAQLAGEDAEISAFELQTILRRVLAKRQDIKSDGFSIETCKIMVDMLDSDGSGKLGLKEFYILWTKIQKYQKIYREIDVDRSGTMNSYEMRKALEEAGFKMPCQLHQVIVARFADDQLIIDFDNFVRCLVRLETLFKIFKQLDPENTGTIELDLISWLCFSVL
T1 sequence (P04632 1-268 partner): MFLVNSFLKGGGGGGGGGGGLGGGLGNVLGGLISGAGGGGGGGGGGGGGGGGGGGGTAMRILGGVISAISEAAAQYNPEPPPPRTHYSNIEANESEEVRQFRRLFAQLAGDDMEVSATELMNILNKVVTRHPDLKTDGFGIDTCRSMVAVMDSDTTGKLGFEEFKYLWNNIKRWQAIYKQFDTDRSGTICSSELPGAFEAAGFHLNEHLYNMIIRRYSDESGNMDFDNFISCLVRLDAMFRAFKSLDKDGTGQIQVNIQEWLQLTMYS
Summary of the method: (§1)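 Human calpains 1, 2 and 9 preincubated with inhibitor at 25 °C in 50 mM Tris pH 7.5, 100 mM NaCl, 1 mM DTT; reaction started with 5-FAM/QXL 520 FRET peptide plus CaCl2 for activation. Fluorescence (490/520 nm) followed 10 min; rates from 1-5 min slopes fitted to 4-parameter logistic for IC50.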

Human Calpain 1/NS1 = biological target: T2, Human Calpain 1/NS1 (Homo sapiens, UniProt P07384); assay: Calpain inhibition continuous fluorescence (FRET) assay, Human Calpain 1/NS1; details: Column A; read-out: Human Calpain 1/NS1 IC50
T2 sequence (P07384 1-714): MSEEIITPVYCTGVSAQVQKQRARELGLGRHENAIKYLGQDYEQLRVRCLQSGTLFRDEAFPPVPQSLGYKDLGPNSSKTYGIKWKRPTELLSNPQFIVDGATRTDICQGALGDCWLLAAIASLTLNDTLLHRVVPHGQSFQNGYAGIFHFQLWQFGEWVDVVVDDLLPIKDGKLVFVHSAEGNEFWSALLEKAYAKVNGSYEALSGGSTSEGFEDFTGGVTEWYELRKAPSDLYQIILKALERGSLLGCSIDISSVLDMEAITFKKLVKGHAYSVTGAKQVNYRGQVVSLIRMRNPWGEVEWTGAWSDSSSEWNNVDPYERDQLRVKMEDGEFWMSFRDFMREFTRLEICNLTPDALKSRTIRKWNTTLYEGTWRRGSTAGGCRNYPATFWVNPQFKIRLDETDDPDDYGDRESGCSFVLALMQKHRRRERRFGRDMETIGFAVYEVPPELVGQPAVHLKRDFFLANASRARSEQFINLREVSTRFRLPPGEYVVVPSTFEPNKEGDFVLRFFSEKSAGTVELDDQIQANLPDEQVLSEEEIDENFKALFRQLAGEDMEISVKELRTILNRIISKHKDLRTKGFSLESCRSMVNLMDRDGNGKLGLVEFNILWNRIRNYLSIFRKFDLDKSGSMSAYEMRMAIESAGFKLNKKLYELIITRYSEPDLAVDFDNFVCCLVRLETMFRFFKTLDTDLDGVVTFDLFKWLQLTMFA
T2 sequence (P04632 1-268 partner): T1 sequence (P04632 1-268 partner)
Summary of the method: as §1

Human Calpain 9/NS1 = biological target: T3, Human Calpain 9/NS1 (Homo sapiens, UniProt O14815); assay: Calpain inhibition continuous fluorescence (FRET) assay, Human Calpain 9/NS1; details: Column C; read-out: Human Calpain 9/NS1 IC50
T3 sequence (O14815 1-690): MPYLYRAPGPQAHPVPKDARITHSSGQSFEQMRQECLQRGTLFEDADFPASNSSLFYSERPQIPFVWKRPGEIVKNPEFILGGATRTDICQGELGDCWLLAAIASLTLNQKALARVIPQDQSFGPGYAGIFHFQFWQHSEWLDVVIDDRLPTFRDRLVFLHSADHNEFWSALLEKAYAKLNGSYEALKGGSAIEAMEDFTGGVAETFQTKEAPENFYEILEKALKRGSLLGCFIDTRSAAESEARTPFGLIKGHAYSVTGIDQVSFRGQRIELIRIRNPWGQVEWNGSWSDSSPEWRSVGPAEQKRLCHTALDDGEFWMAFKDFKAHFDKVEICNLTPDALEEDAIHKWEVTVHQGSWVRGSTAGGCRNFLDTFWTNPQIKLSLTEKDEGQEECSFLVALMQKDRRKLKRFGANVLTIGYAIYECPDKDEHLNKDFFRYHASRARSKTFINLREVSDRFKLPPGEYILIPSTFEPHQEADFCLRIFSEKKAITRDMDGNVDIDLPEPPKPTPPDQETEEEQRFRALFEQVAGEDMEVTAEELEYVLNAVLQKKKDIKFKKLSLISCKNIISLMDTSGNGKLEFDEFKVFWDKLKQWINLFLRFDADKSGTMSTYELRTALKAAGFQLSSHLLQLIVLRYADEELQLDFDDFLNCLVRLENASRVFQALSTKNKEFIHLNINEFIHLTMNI
T3 sequence (P04632 1-268 partner): T1 sequence (P04632 1-268 partner)
Summary of the method: as §1

Structure (SMILES)	pIC50 (Human Calpain 2/NS1)	pIC50 (Human Calpain 1/NS1)	pIC50 (Human Calpain 9/NS1)
NC(=O)C(=O)[C@H](Cc1ccccc1)NC(=O)c1cncn1-c1cc(-c2ncco2)ccn1 [Compound 88, (S)—N-(4-amino-3,4-dioxo-1-phenylbutan-2-yl)-1-(4-(oxazol-2-yl)pyridin-2-yl)-1H-imidazole-5-carboxamide]	> 5.52	> 5.52	> 5.52
O=C(NC1CC1)C(=O)[C@H](Cc1ccccc1)NC(=O)c1cncn1-c1ccc(-c2ncco2)cn1 [Compound 89, (S)—N-(4-(cyclopropylamino)-3,4-dioxo-1-phenylbutan-2-yl)-1-(5-(oxazol-2-yl)pyridin-2-yl)-1H-imidazole-5-carboxamide]	> 5.52	> 5.52	5.00 to 5.52
O=C[C@H](Cc1ccccc1)NC(=O)c1cncn1-c1nc2ccccc2[nH]1 [Compound 90, (S)-1-(1H-benzo[d]imidazol-2-yl)-N-(1-oxo-3-phenylpropan-2-yl)-1H-imidazole-5-carboxamide]	> 5.52	> 5.52	5.00 to 5.52
O=C[C@H](Cc1ccccc1)NC(=O)c1cncs1 [Compound 91, (S)—N-(1-oxo-3-phenylpropan-2-yl)thiazole-5-carboxamide]	> 5.52	5.00 to 5.52	5.00 to 5.52
O=C[C@H](Cc1ccccc1)NC(=O)c1cccc2nc(-c3ccccc3)[nH]c12 [Compound 92, (S)—N-(1-oxo-3-phenylpropan-2-yl)-2-phenyl-1H-benzo[D]imidazole-7-carboxamide]	5.00 to 5.52	5.00 to 5.52	> 5.52
C=CCOc1ccc(C[C@@H](C=O)NC(=O)c2cc(C)nn2-c2ccccn2)cc1 [Compound 93, (S)—N-(1-(4-(allyloxy)phenyl)-3-oxopropan-2-yl)-3-methyl-1-(pyridin-2-yl)-1H-pyrazole-5-carboxamide]	> 5.52	> 5.52	> 5.52
Cn1nc(-c2ccccc2)c(C(=O)N[C@@H](Cc2ccccc2)C(=O)C(N)=O)c1Cl [Compound 94, (S)—N-(4-amino-3,4-dioxo-1-phenylbutan-2-yl)-5-chloro-1-methyl-3-phenyl-1H-pyrazole-4-carboxamide]	> 5.52	> 5.52	> 5.52
Cc1nsc(-c2ccccc2)c1C(=O)N[C@@H](Cc1ccccc1)C(=O)C(N)=O [Compound 96, (S)—N-(4-amino-3,4-dioxo-1-phenylbutan-2-yl)-3-methyl-5-phenylisothiazole-4-carboxamide]	> 5.52	> 5.52	> 5.52
Cc1cc(C)cc(C[C@H](NC(=O)c2c(C)noc2-c2ccccc2)C(=O)C(N)=O)c1 [Compound 97, (S)—N-(4-amino-1-(3,5-dimethylphenyl)-3,4-dioxobutan-2-yl)-3-methyl-5-phenylisoxazole-4-carboxamide]	> 5.52	> 5.52	> 5.52
Cc1noc(-c2ccccc2)c1C(=O)N[C@@H](Cc1ccccc1)C(=O)C(=O)NC1CC1 [Compound 100, (S)—N-(4-(cyclopropylamino)-3,4-dioxo-1-phenylbutan-2-yl)-3-methyl-5-phenylisoxazole-4-carboxamide]	> 5.52	> 5.52	> 5.52
Cc1noc(-c2ccccc2)c1C(=O)N[C@@H](Cc1ccccc1)C(=O)C(=O)NCc1ccc(Cl)c(Cl)c1 [Compound 101, (S)—N-(4-((3,4-dichlorobenzyl)amino)-3,4-dioxo-1-phenylbutan-2-yl)-3-methyl-5-phenylisoxazole-4-carboxamide]	< 5.00	< 5.00	< 5.00
O=C[C@H](Cc1ccccc1)NC(=O)c1cncn1-c1n[nH]c2ccccc12 [Compound 102, (S)-1-(1H-indazol-3-yl)-N-(1-oxo-3-phenylpropan-2-yl)-1H-imidazole-5-carboxamide]	> 5.52	> 5.52	> 5.52
NC(=O)C(=O)[C@H](Cc1ccccc1)NC(=O)c1occc1-c1ccccc1 [Compound 104, (S)—N-(4-amino-3,4-dioxo-1-phenylbutan-2-yl)-3-phenylfuran-2-carboxamide]	> 5.52	> 5.52	> 5.52
